Values after ≈ are worked out from the molar mass of the structure shown.
Key:
Klebsiella pneumoniae = assay: Antibacterial activity against Klebsiella pneumoniae ATCC 700603 assessed as inhibition of bacterial growth measured after 18 hrs by resazurin dye based analysis; format: functional
Escherichia coli = assay: Antibacterial activity against Escherichia coli ATCC 25922 assessed as inhibition of bacterial growth measured after 18 hrs by resazurin dye based analysis; format: functional
Pseudomonas aeruginosa = assay: Antibacterial activity against Pseudomonas aeruginosa ATCC 27853 assessed as inhibition of bacterial growth measured after 18 hrs by resazurin dye based analysis; format: functional
Staphylococcus aureus = assay: Antibacterial activity against methicillin-resistant Staphylococcus aureus ATCC 43300 assessed as inhibition of bacterial growth measured after 18 hrs by resazurin dye based analysis; format: functional
Acinetobacter baumannii = assay: Antibacterial activity against Acinetobacter baumannii ATCC 19606 assessed as inhibition of bacterial growth measured after 18 hrs by resazurin dye based analysis; format: functional
Candida albicans = assay: Antifungal activity against Candida albicans ATCC 90028 assessed as fungal growth inhibition incubated for 36 hrs by resazurin dye based analysis; format: functional
Cryptococcus neoformans = assay: Antifungal activity against Cryptococcus neoformans ATCC 208821 assessed as fungal growth inhibition incubated for 36 hrs by resazurin dye based analysis; format: functional
[1] = Cytotoxicity against HEK293 cells assessed as cell growth inhibition measured after 20 hrs by resazurin dye based assay; format: toxicity; details: human

Row | Molecule | MIC (Klebsiella pneumoniae) | MIC (Escherichia coli) | MIC (Pseudomonas aeruginosa) | MIC (Staphylococcus aureus) | MIC (Acinetobacter baumannii) | MIC (Candida albicans) | MIC (Cryptococcus neoformans) | IC50 at 20 h [1]
1 | C[C@]1(C(=O)O)CCC[C@]2(C)c3cc(OC(=O)NCCCNCCCCCCN)ccc3CC[C@@H]12.O=C(O)C(F)(F)F.O=C(O)C(F)(F)F | > 45.6 µM | > 45.6 µM | > 45.6 µM | > 45.6 µM | > 45.6 µM | > 45.6 µM | > 45.6 µM | > 45.6 µM
2 | C[C@]1(C(=O)O)CCC[C@]2(C)c3cc(O)ccc3CC[C@@H]12 [PODOCARIC ACID] | > 117 µM | > 117 µM | > 117 µM | > 117 µM | > 117 µM | > 117 µM | > 117 µM | –
3 | C[C@]1(C(=O)NCCCNCCCCCCCN)CCC[C@]2(C)c3cc(O)ccc3CC[C@@H]12.O=C(O)C(F)(F)F.O=C(O)C(F)(F)F | > 47.6 µM | > 47.6 µM | > 47.6 µM | > 47.6 µM | > 47.6 µM | > 47.6 µM | > 47.6 µM | > 47.6 µM
4 | C[C@]1(C(=O)O)CCC[C@]2(C)c3cc(OC(=O)CCCNCCCCCCCCNCCCNC(=O)Oc4ccc5c(c4)[C@@]4(C)CCC[C@](C)(C(=O)O)[C@@H]4CC5)ccc3CC[C@@H]12.O=C(O)C(F)(F)F.O=C(O)C(F)(F)F | > 29.4 µM | > 29.4 µM | > 29.4 µM | > 29.4 µM | > 29.4 µM | 14.7 µM | ≤ 0.23 µM | > 29.4 µM
5 | C[C@H]1c2cccc(O)c2C(=O)C2=C(O)[C@]3(O)C(=O)C(C(N)=O)=C(O)[C@@H](N(C)C)[C@@H]3[C@@H](O)[C@@H]21 [DOXYCYCLINE] | – | – | 90 µM (≈ 40 µg/mL) | – | – | – | – | –
6 | CN[C@H](CC(C)C)C(=O)N[C@H]1C(=O)N[C@@H](CC(N)=O)C(=O)N[C@H]2C(=O)N[C@H]3C(=O)N[C@H](C(=O)N[C@H](C(=O)O)c4cc(O)cc(O)c4-c4cc3ccc4O)[C@H](O)c3ccc(c(Cl)c3)Oc3cc2cc(c3O[C@@H]2O[C@H](CO)[C@@H](O)[C@H](O)[C@H]2O[C@H]2C[C@](C)(N)[C@H](O)[C@H](C)O2)Oc2ccc(cc2Cl)[C@H]1O [VANCOMYCIN] | – | – | – | 0.7 µM (≈ 1.01 µg/mL) | – | – | – | –
7 | C[C@]1(C(=O)NCCCNCCCCCCCCCCCCNCCCNC(=O)[C@@]2(C)CCC[C@]3(C)c4cc(O)ccc4CC[C@@H]23)CCC[C@]2(C)c3cc(O)ccc3CC[C@@H]12.O=C(O)C(F)(F)F.O=C(O)C(F)(F)F | > 30.3 µM | > 30.3 µM | > 30.3 µM | ≤ 0.24 µM | > 30.3 µM | 7.58 µM | ≤ 0.24 µM | > 30.3 µM
8 | C[C@]1(C(=O)O)CCC[C@]2(C)c3cc(OC(=O)CCCNCCCCCCCNCCCNC(=O)Oc4ccc5c(c4)[C@@]4(C)CCC[C@](C)(C(=O)O)[C@@H]4CC5)ccc3CC[C@@H]12.O=C(O)C(F)(F)F.O=C(O)C(F)(F)F | > 29.8 µM | > 29.8 µM | > 29.8 µM | > 29.8 µM | > 29.8 µM | 29.8 µM | 7.45 µM | > 29.8 µM
9 | CCCCCNC(=O)[C@@]1(C)CCC[C@]2(C)c3cc(OC(=O)CCCNCCCCCCCCCCCCNCCCNC(=O)Oc4ccc5c(c4)[C@@]4(C)CCC[C@](C)(C(=O)NCCCCC)[C@@H]4CC5)ccc3CC[C@@H]12.O=C(O)C(F)(F)F.O=C(O)C(F)(F)F | > 25 µM | > 25 µM | > 25 µM | 1.56 µM | > 25 µM | ≤ 0.19 µM | ≤ 0.19 µM | > 25 µM
10 | COLISTIN | 0.2 µM | 0.1 µM | 0.2 µM | – | 0.2 µM | – | – | –
11 | CCCCCNC(=O)[C@@]1(C)CCC[C@]2(C)c3cc(OC(=O)CCCNCCCCCCCNCCCNC(=O)Oc4ccc5c(c4)[C@@]4(C)CCC[C@](C)(C(=O)NCCCCC)[C@@H]4CC5)ccc3CC[C@@H]12.O=C(O)C(F)(F)F.O=C(O)C(F)(F)F | > 26.4 µM | > 26.4 µM | > 26.4 µM | ≤ 0.21 µM | > 26.4 µM | ≤ 0.21 µM | 3.3 µM | > 26.4 µM
12 | CC[C@H]1OC(=O)[C@H](C)[C@@H](O[C@H]2C[C@@](C)(OC)[C@@H](O)[C@H](C)O2)[C@H](C)[C@@H](O[C@@H]2O[C@H](C)C[C@H](N(C)C)[C@H]2O)[C@](C)(O)C[C@@H](C)C(=O)[C@H](C)[C@@H](O)[C@]1(C)O [ERYTHROMYCIN] | – | 174 µM (≈ 128 µg/mL) | – | – | – | – | – | –
13 | C[C@]1(C(=O)O)CCC[C@]2(C)c3cc(OC(=O)NCCCNCCCCN)ccc3CC[C@@H]12 | > 47.5 µM | > 47.5 µM | > 47.5 µM | > 47.5 µM | > 47.5 µM | > 47.5 µM | > 47.5 µM | –
14 | C[C@]1(C(=O)NCCCNCCCCCCCNCCCNC(=O)[C@@]2(C)CCC[C@]3(C)c4cc(O)ccc4CC[C@@H]23)CCC[C@]2(C)c3cc(O)ccc3CC[C@@H]12.O=C(O)C(F)(F)F.O=C(O)C(F)(F)F | > 32.5 µM | 32.5 µM | > 32.5 µM | 32.5 µM | > 32.5 µM | 32.5 µM | 32.5 µM | 19.1 µM
15 | C[C@]1(C(=O)O)CCC[C@]2(C)c3cc(OC(=O)NCCCNCCCCCCCCCCCCN)ccc3CC[C@@H]12.O=C(O)C(F)(F)F.O=C(O)C(F)(F)F | > 32.8 µM | > 32.8 µM | > 32.8 µM | > 32.8 µM | > 32.8 µM | 32.8 µM | > 32.8 µM | > 32.8 µM
16 | COC(=O)[C@@]1(C)CCC[C@]2(C)c3cc(OC(=O)CCCNCCCCCCNCCCNC(=O)Oc4ccc5c(c4)[C@@]4(C)CCC[C@](C)(C(=O)OC)[C@@H]4CC5)ccc3CC[C@@H]12.O=C(O)C(F)(F)F.O=C(O)C(F)(F)F | > 29.4 µM | 14.7 µM | > 29.4 µM | ≤ 0.23 µM | > 29.4 µM | ≤ 0.23 µM | 0.46 µM | 4.68 µM
17 | C[C@@]12CCC[C@](C)(C(=O)O)[C@H]1CCc1ccc(OC(=O)CCCNCCCCNCCCNC(=O)Oc3ccc4c(c3)[C@@]3(C)CCC[C@](C)(C(=O)O)[C@@H]3CC4)cc12.O=C(O)C(F)(F)F.O=C(O)C(F)(F)F | > 31 µM | > 31 µM | > 31 µM | > 31 µM | > 31 µM | 7.76 µM | 7.76 µM | > 31 µM
18 | C[C@]1(C(=O)NCCCNCCCCCCCCN)CCC[C@]2(C)c3cc(O)ccc3CC[C@@H]12.O=C(O)C(F)(F)F.O=C(O)C(F)(F)F | > 46.7 µM | > 46.7 µM | > 46.7 µM | 46.7 µM | > 46.7 µM | > 46.7 µM | > 46.7 µM | > 46.7 µM
19 | C[C@]1(C(=O)NCCCNCCCCCCN)CCC[C@]2(C)c3cc(O)ccc3CC[C@@H]12.O=C(O)C(F)(F)F.O=C(O)C(F)(F)F | > 48.6 µM | > 48.6 µM | > 48.6 µM | > 48.6 µM | > 48.6 µM | > 48.6 µM | > 48.6 µM | > 48.6 µM
20 | C[C@]1(C(=O)NCCCNCCCCCCCCCCNCCCNC(=O)[C@@]2(C)CCC[C@]3(C)c4cc(O)ccc4CC[C@@H]23)CCC[C@]2(C)c3cc(O)ccc3CC[C@@H]12.O=C(O)C(F)(F)F.O=C(O)C(F)(F)F | > 31.1 µM | > 31.1 µM | > 31.1 µM | ≤ 0.24 µM | > 32.1 µM | > 32.1 µM | 3.89 µM | 0.87 µM
21 | COC(=O)[C@@]1(C)CCC[C@]2(C)c3cc(OC(=O)CCCNCCCCCCCCCCCCNCCCNC(=O)Oc4ccc5c(c4)[C@@]4(C)CCC[C@](C)(C(=O)OC)[C@@H]4CC5)ccc3CC[C@@H]12.O=C(O)C(F)(F)F.O=C(O)C(F)(F)F | > 27.3 µM | > 27.3 µM | > 27.3 µM | ≤ 0.21 µM | > 27.3 µM | ≤ 0.21 µM | 0.43 µM | > 27.3 µM
22 | C[C@]1(C(=O)NCCCNCCCCCCCCCCN)CCC[C@]2(C)c3cc(O)ccc3CC[C@@H]12.O=C(O)C(F)(F)F.O=C(O)C(F)(F)F | > 44.8 µM | > 44.8 µM | > 44.8 µM | > 44.8 µM | > 44.8 µM | > 44.8 µM | > 44.8 µM | > 44.8 µM
23 | CCCCCNC(=O)[C@@]1(C)CCC[C@]2(C)c3cc(OC(=O)CCCNCCCCCCCCNCCCNC(=O)Oc4ccc5c(c4)[C@@]4(C)CCC[C@](C)(C(=O)NCCCCC)[C@@H]4CC5)ccc3CC[C@@H]12.O=C(O)C(F)(F)F.O=C(O)C(F)(F)F | > 26.1 µM | > 26.1 µM | > 26.1 µM | 1.63 µM | > 26.1 µM | ≤ 0.2 µM | ≤ 0.2 µM | > 26.1 µM
24 | C[C@]1(C(=O)NCCCNCCCCCCCCN)CCC[C@]2(C)c3cc(OC(=O)NCCCNCCCCCCCCN)ccc3CC[C@@H]12.O=C(O)C(F)(F)F.O=C(O)C(F)(F)F.O=C(O)C(F)(F)F.O=C(O)C(F)(F)F | > 28 µM | > 28 µM | > 28 µM | > 28 µM | > 28 µM | > 28 µM | > 28 µM | > 28 µM
25 | C[C@]1(C(=O)NCCCNCCCCN)CCC[C@]2(C)c3cc(O)ccc3CC[C@@H]12 | > 50.8 µM | > 50.8 µM | > 50.8 µM | > 50.8 µM | > 50.8 µM | > 50.8 µM | > 50.8 µM | –
26 | C[C@]1(C(=O)O)CCC[C@]2(C)c3cc(OC(=O)NCCCNCCCCCCCCCCN)ccc3CC[C@@H]12 | > 42.2 µM | > 42.2 µM | > 42.2 µM | > 42.2 µM | > 42.2 µM | > 42.2 µM | > 42.2 µM | –
27 | OC(Cn1cncn1)(Cn1cncn1)c1ccc(F)cc1F [FLUCONAZOLE] | – | – | – | – | – | 0.4 µM (≈ 0.123 µg/mL) | 26 µM (≈ 7.96 µg/mL) | –

From ChEMBL document CHEMBL5143685, “Valorisation of the diterpene podocarpic acid - Antibiotic and antibiotic enhancing activities of polyamine conjugates” (Bioorg Med Chem, 2022)
